Measurements: patent publication US20220098265A1 (MEDIMMUNE LIMITED, priority 2012, published 2022)
Read-outs that look alike come from different tables or passages of the source. Blank lines part the entries; values can stand above or below the molecule they belong to. Numbered stars: 1 amine (or outer) side, 2 acyl side, 3 side chain; on linkers, the order of the positions; unused ones are H or OH. Side chains are listed from the residue outwards. Peptide text beside a SMILES is read from it. * marks the point of attachment. γGlu = O=C(O)[C@H](CCC(=O)[*:2])N[*:1]; Palmitoyl = CCCCCCCCCCCCCCCC(=O)*

What was measured:
DIO mice = assay: Diet induced obesity (DIO) mouse model, study B; format: in vivo; conditions: for BW day 14 (% change of vehicle mean) / HOMA / Hepatic TG (g TG/100g tissue) / Plasma NEFA / Plasma TG: day 14; for Glucose / Insulin: day 14, 4-hour fasting
Experimental: The body weight of the animals was monitored daily throughout the dosing period At day 14, blood samples for the measurement of plasma glucose and insulin from conscious mice were obtained after a 4-hour fasting period. Mice were then anaesthetized using isofluorane and terminal blood was collected from the capillary bed behind the eye. The following parameters were measured: blood chemistry measurements of triglycerides, total cholesterol, non-esterified fatty acids (NEFA), beta-hydroxybutyrate and fibroblast growth factor 21 (FGF21) (Table 16 and Table 17 below).

[1] = Stability testing of peptides in human plasma; format: in vitro ADME
Experimental: Stability testing of peptides in plasma. The stability in plasma of the peptides […], […], […] and […] was determined as follows. […] The frozen blank plasma from human, rat and mouse had been thawed and heated to a temperature of 37° C. before addition of the stock solution. The spiked plasma samples were gently mixed and allowed to equilibrate for about 5 minutes before start of experiment. The plasma samples were incubated for 48 hours in a Galaxy® CO2 incubator at 37° C. […] The samples were stored at -70° C. until analysis. Plasma samples were assayed as follows. The 30 μL plasma samples were protein precipitated with […] of cold ethanol in a 96-well low bind plate (Eppendorf Protein LoBind). After mixing and centrifugation 100 μl the supernatant was transferred to a new plate and 1 μl was injected onto an analytical column. The analysis was performed using a μLC-system ([…]) coupled to a medium high resolution mass spectrometer (Perkin Elmer PenTOF) with positive electrospray ionisation. […] Flow: 0.1 ml/min using a slow reversed phase gradient. […] Products with +1 mass may arise from deamidation at amide groups of glutamine or at the C-terminus. Cleavage products arise from the action of the protease DPP IV in plasma. Both the degradation of the peptides and formation of peptide products were reported in percentage of the initial peptide concentration. Peaks were integrated and % remaining peptide was calculated: […] Levels of deamidation and DPP IV cleavage were low for […] and […].

human serum albumin = human serum albumin (Homo sapiens, UniProt P02768); assay: Fraction of free peptide at plasma concentration of albumin, calculated from variation in cAMP generation with HSA concentration; format: in vitro ADME; design: purchased Sigma Aldrich
Human GLP1R = Human GLP1R (Homo sapiens, UniProt P43220); conditions: read-out: hGLP1R EC50; assay 1; additional peptides (Table 4)
Human GIPr = target: T1, Human GIPr (Homo sapiens, UniProt P48546); assay: cAMP activity assay 1 in assay medium, human GIP receptor; format: cell-based; conditions: additional peptides (Table 4)
T1 construct: expressed in transfected cells
T1 sequence (P48546 22-466): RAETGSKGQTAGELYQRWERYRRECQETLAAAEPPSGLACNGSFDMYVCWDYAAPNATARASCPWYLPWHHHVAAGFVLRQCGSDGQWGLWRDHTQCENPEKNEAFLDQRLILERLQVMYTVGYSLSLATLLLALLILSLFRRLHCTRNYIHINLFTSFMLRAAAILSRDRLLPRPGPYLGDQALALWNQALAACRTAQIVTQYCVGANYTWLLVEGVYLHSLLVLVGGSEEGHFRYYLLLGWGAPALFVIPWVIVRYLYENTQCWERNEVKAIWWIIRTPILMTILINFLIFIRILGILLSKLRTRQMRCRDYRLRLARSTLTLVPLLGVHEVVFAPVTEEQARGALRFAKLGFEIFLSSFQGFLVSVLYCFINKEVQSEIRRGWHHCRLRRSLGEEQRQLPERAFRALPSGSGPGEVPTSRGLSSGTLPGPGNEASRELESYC

Human GlucR = Human GlucR (Homo sapiens, UniProt P47871); conditions: read-out: hGlucR EC50; assay 1; additional peptides (Table 4)
[2] = frozen blank plasma from rat; conditions: 37° C, up to 48 hours
human glucagon receptor [3] = target: T2, human glucagon receptor (human, UniProt P47871 26-477); assay: cell-based or functional assay
human GLP-1 receptor [4] = target: T3, human GLP-1 receptor (human, UniProt P43220 24-463); assay: cell-based or functional assay
[5] = target: T4, human glucose-dependent insulinotropic peptide (gastric inhibitory polypeptide) receptor (human, UniProt P48546 22-466); assay: cell-based or functional assay
T4 sequence (looked up): T1 sequence (P48546 22-466)

human glucagon receptor [6] = target: T2, human glucagon receptor; assay: cell-based or functional assay; remark: listed apart in the source
human GLP-1 receptor [7] = target: T3, human GLP-1 receptor; assay: cell-based or functional assay; remark: listed apart in the source
[8] = target: T4, human glucose-dependent insulinotropic …; assay: cell-based or functional assay; remark: listed apart in the source
mouse glucagon receptor = mouse glucagon receptor (mouse, UniProt Q61606 27-485); assay: cell-based or functional assay
human glucagon receptor [9] = target: T2, human glucagon receptor; assay: cell-based or functional assay; remark: listed apart in the source
mouse GLP-1 receptor = target: T5, mouse GLP-1 receptor (mouse, UniProt O35659 22-463); assay: cell-based or functional assay
T5 sequence (looked up): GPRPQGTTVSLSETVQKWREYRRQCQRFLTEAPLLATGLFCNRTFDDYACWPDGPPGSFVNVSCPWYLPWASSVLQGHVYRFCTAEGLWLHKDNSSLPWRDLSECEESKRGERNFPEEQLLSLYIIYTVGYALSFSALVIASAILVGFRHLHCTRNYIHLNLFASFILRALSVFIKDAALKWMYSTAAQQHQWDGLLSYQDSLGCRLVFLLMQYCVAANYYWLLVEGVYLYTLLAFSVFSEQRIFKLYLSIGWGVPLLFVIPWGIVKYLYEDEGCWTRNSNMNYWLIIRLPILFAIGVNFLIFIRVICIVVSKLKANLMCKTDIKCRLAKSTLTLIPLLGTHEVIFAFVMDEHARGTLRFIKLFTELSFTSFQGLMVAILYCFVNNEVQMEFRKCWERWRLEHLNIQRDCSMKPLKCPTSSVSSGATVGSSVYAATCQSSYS

human GLP-1 receptor [10] = target: T3, human GLP-1 receptor; assay: cell-based or functional assay; remark: listed apart in the source

T2 sequence (P47871 26-477): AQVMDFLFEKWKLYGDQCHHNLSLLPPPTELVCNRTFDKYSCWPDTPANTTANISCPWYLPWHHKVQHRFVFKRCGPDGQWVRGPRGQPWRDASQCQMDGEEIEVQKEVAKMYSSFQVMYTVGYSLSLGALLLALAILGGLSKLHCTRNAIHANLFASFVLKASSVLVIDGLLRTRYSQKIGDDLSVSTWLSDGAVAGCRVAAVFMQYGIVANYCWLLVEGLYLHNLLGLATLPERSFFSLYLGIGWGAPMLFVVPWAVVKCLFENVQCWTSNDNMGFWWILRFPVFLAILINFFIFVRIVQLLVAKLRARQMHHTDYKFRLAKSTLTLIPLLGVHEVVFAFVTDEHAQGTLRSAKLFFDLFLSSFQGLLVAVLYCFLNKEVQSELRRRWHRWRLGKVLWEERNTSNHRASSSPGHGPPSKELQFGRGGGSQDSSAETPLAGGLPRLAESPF
Sequence of Human GLP1R (P43220 24-463): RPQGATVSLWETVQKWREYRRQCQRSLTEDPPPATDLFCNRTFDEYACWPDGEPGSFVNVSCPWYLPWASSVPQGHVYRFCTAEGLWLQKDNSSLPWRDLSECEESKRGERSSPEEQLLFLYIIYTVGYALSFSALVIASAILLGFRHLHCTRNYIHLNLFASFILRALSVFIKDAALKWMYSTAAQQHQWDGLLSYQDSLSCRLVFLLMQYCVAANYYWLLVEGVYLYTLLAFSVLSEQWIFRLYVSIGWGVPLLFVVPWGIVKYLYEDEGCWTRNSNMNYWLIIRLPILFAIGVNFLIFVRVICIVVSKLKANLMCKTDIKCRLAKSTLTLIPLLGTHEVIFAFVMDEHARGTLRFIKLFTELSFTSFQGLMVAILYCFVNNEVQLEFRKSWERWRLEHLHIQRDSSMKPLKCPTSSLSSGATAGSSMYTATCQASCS
Sequence of mouse glucagon receptor (Q61606 27-485): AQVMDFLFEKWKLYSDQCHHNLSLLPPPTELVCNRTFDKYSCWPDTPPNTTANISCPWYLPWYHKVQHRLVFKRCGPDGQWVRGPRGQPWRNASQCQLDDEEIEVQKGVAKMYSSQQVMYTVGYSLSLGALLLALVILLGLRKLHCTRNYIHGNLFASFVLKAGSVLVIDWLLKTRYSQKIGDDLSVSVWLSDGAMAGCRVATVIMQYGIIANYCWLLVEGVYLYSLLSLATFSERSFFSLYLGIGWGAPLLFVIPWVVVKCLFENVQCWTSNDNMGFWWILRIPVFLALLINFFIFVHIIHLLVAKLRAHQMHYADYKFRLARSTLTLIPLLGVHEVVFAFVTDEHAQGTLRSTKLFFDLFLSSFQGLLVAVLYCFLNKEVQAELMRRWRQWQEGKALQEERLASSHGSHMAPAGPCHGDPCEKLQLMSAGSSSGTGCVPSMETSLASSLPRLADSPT
Sequence of human serum albumin (P02768 25-609): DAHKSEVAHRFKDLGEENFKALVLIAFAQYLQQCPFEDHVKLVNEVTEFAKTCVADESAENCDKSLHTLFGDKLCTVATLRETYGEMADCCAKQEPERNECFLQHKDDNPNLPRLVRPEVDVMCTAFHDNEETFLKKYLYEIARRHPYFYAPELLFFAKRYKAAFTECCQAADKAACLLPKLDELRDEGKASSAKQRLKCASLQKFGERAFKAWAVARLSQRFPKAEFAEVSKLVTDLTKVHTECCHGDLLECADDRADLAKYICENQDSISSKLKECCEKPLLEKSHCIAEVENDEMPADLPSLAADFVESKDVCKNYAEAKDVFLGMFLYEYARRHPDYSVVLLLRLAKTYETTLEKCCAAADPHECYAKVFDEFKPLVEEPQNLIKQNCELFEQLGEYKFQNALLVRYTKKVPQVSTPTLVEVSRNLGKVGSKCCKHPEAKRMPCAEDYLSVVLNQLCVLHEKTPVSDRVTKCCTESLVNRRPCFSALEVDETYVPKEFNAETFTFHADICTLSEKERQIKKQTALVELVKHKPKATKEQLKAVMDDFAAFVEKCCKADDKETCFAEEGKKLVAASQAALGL
Sequence of Human GlucR (P47871 26-477): as the sequence (P47871 26-477) above

Molecule: CCCCCCCCCCCCCCCC(=O)N[C@@H](CCC(=O)NCCCC[C@H](NC(=O)[C@H](Cc1ccc(O)cc1)NC(=O)[C@H](CCCNC(=N)N)NC(=O)[C@H](CO)NC(=O)[C@H](Cc1ccc(O)cc1)NC(=O)[C@H](CC(=O)O)NC(=O)[C@H](CO)NC(=O)[C@@H](NC(=O)[C@H](Cc1ccccc1)NC(=O)[C@@H](NC(=O)CNC(=O)[C@H](CCC(N)=O)NC(=O)[C@H](CO)NC(=O)[C@@H](N)Cc1c[nH]cn1)[C@@H](C)O)[C@@H](C)O)C(=O)N[C@@H](CC(=O)O)C(=O)N[C@@H](CO)C(=O)N[C@@H](CCCNC(=N)N)C(=O)N[C@@H](CO)C(=O)N[C@@H](C)C(=O)N[C@@H](CCCNC(=N)N)C(=O)N[C@@H](CC(=O)O)C(=O)N[C@@H](Cc1ccccc1)C(=O)N[C@H](C(=O)N[C@@H](C)C(=O)N[C@@H](Cc1c[nH]c2ccccc12)C(=O)N[C@@H](CC(C)C)C(=O)N[C@@H](CCC(=O)O)C(=O)N[C@@H](C)C(N)=O)C(C)C)C(=O)O [g850] (H-HSQGTFTSDYSRYK([γGlu-Palmitoyl])DSRSARDFVAWLEA-NH2)
EC50 (Human GLP1R): 0.0212 nM
EC50 (Human GIPr; read-out: hGIPR EC50): 89.6 nM
EC50 (Human GlucR): 0.00219 nM

Molecule: Listed in the section of parent HSQGTFTSDYSKYLDSRRAQDFVQWLEAGG; no modification printed [g536]
EC50 (Human GLP1R): 0.0745 nM

The next lines start with results.

% DPP cleaved product/+1 DPP cleaved product [1]: <1%
solubility (physchem; pH 7): ≥ 10000 µg/mL
solubility (physchem; pH 7.2): ≥ 5000 µg/mL
free peptide at 4.4% HSA (human serum albumin): 0.29%
Molecule: CCCCCCCCCCCCCCCC(=O)N[C@@H](CCC(=O)NCCCC[C@H](NC(=O)[C@H](CC(=O)O)NC(=O)[C@H](CO)NC(=O)[C@@H](NC(=O)[C@H](Cc1ccccc1)NC(=O)[C@@H](NC(=O)CNC(=O)[C@H](CCC(N)=O)NC(=O)[C@H](CO)NC(=O)[C@@H](N)Cc1c[nH]cn1)[C@@H](C)O)[C@@H](C)O)C(=O)N[C@@H](CO)C(=O)N[C@@H](CCC(=O)O)C(=O)N[C@@H](Cc1ccc(O)cc1)C(=O)N[C@@H](CC(C)C)C(=O)N[C@@H](CC(=O)O)C(=O)N[C@@H](CO)C(=O)N[C@@H](CCC(=O)O)C(=O)N[C@@H](CCCNC(=N)N)C(=O)N[C@@H](C)C(=O)N[C@@H](CCCNC(=N)N)C(=O)N[C@@H](CC(=O)O)C(=O)N[C@@H](Cc1ccccc1)C(=O)N[C@H](C(=O)N[C@@H](C)C(=O)N[C@@H](Cc1c[nH]c2ccccc12)C(=O)N[C@@H](CC(C)C)C(=O)N[C@@H](CCC(=O)O)C(=O)N[C@@H](C)C(=O)NCC(=O)NCC(=O)O)C(C)C)C(=O)O [Peptide G933]
BW day 14 (% change of vehicle mean) (DIO mice; 5 nmol/kg s.c. twice daily for 14 days): −11%
HOMA (DIO mice; 5 nmol/kg s.c. twice daily): 3.31
Hepatic TG (g TG/100g tissue) (DIO mice; 5 nmol/kg s.c. twice daily): 11.3 g TG/100g tissue
Plasma NEFA (DIO mice; 5 nmol/kg s.c. twice daily): 0.28 mM
Plasma TG (DIO mice; 5 nmol/kg s.c. twice daily): 0.19 mM
Glucose (DIO mice; 5 nmol/kg s.c. twice daily): 6.2 mM
Insulin (DIO mice; 5 nmol/kg s.c. twice daily): 0.53 nM
BW day 14 (% change of vehicle mean) (DIO mice; 10 nmol/kg s.c. twice daily for 14 days): −19%
HOMA (DIO mice; 10 nmol/kg s.c. twice daily): 1.98
Hepatic TG (g TG/100g tissue) (DIO mice; 10 nmol/kg s.c. twice daily): 14.7 g TG/100g tissue
Plasma NEFA (DIO mice; 10 nmol/kg s.c. twice daily): 0.27 mM
Plasma TG (DIO mice; 10 nmol/kg s.c. twice daily): 0.16 mM
Glucose (DIO mice; 10 nmol/kg s.c. twice daily): 7.2 mM
Insulin (DIO mice; 10 nmol/kg s.c. twice daily): 0.27 nM
effect on body weight over the 14 day dosing period (DIO mice; study B, FIGS. 5-8): dose dependent and continuous weight loss

EC50 (Human GIPr; g688, read-out: hGIPR EC50): 112 nM
Molecule: CCCCCCCCCCCCCCCC(=O)N[C@@H](CCC(=O)NCCCC[C@H](NC(=O)[C@H](CO)NC(=O)[C@H](CC(=O)O)NC(=O)[C@H](CC(C)C)NC(=O)[C@H](Cc1ccc(O)cc1)NC(=O)[C@H](CCCCN)NC(=O)[C@H](CO)NC(=O)[C@H](Cc1ccc(O)cc1)NC(=O)[C@H](CC(=O)O)NC(=O)[C@H](CO)NC(=O)[C@@H](NC(=O)[C@H](Cc1ccccc1)NC(=O)[C@@H](NC(=O)CNC(=O)[C@H](CCC(N)=O)NC(=O)[C@H](CO)NC(=O)[C@@H](N)Cc1c[nH]cn1)[C@@H](C)O)[C@@H](C)O)C(=O)N[C@@H](CCCNC(=N)N)C(=O)N[C@@H](C)C(=O)N[C@@H](CCC(=O)O)C(=O)N[C@@H](CC(=O)O)C(=O)N[C@@H](Cc1ccccc1)C(=O)N[C@H](C(=O)N[C@@H](CCC(N)=O)C(=O)N[C@@H](Cc1c[nH]c2ccccc12)C(=O)N[C@@H](CC(C)C)C(=O)N[C@H](C(=O)N[C@@H](C)C(=O)NCC(=O)NCC(N)=O)C(C)C)C(C)C)C(=O)O [g599]

fragment found [2]: DPP IV-cleavage product
Molecule: HSQGTFTSDXSRYLDSRSARDFVAWLEAGG-amide X10 = K(gE-palm)

cAMP EC50 (assay 1) (human glucagon receptor [3]): 0.362 nM
cAMP EC50 (assay 1) (human GLP-1 receptor [4]): 0.1 nM
cAMP EC50 (assay 1) [5]: 609 nM
cAMP EC50 (assay 1) (human glucagon receptor [6]): 0.217 nM
cAMP EC50 (assay 1) (human GLP-1 receptor [7]): 0.077 nM
cAMP EC50 (assay 1) [8]: 130 nM
cAMP EC50 (assay 2, 3.2% mouse serum albumin) (mouse glucagon receptor): 576 nM
cAMP EC50 (assay 2, 4.4% human serum albumin) (human glucagon receptor [9]): 53.6 nM
cAMP EC50 (assay 2, 3.2% mouse serum albumin) (mouse GLP-1 receptor): 15 nM
cAMP EC50 (assay 2, 4.4% human serum albumin) (human GLP-1 receptor [10]): 6.54 nM
Molecule: HGQGTFTSDYSKYLDSKRAQDFVQWLVAGG (X17 = K(gE-palm); C-terminal amide) [G380]
